Assay results from article PMC10986521 (Microbiology Spectrum, 2024).

Assays:
in vitro = settings: human
FMDV 3Cpro [1] = target: T1, FMDV 3Cpro (Foot-and-mouth disease virus A, UniProt A0A097I315); assay: biochemical; parameters: species or system FMDV A/IND287/96 strain (serotype A); settings: FRET assay (IC50)
FMDV 3Cpro [2] = target: T1, FMDV 3Cpro; assay: cell-based; parameters: species or system FMDV A/IND287/96 strain; settings: Cell-based assay (EC50)

CC(C)C[C@H](NC(=O)OCC(C)(C)Sc1cccc(F)c1)C(=O)N[C@@H](C[C@@H]1CCNC1=O)C(O)S(=O)(=O)O (some centres unmarked) [Compound D5d]
CC50 (in vitro): > 50 µM
IC50 (FMDV 3Cpro [1]): 0.81 ± 0.07 µM

CC(C)C[C@H](NC(=O)OCc1ccccc1)C(=O)N[C@@H](C[C@@H]1CCNC1=O)C(=O)C(=O)NC1CC1 [Compound E6b]
CC50 (in vitro): > 50 µM
IC50 (FMDV 3Cpro [1]): 2.4 ± 0.09 µM
EC50 (FMDV 3Cpro [2]): 8.8 ± 0.3 µM

CC(C)C[C@H](NC(=O)OC[C@@H]1C[C@H]1Cc1ccccc1)C(=O)N[C@@H](C[C@H]1CCNC1=O)C(O)S(=O)(=O)O (some centres unmarked) [Compound C3d]
CC50 (in vitro): > 50 µM
IC50 (FMDV 3Cpro [1]): 0.8 ± 0.14 µM
EC50 (FMDV 3Cpro [2]): 4.02 ± 0.3 µM

CC(C)C[C@H](NC(=O)OC[C@H]1[C@H](Cc2ccccc2)C1(F)F)C(=O)N[C@H](C=O)C[C@H]1CCNC1=O [Compound C4c]
CC50 (in vitro): > 50 µM
IC50 (FMDV 3Cpro [1]): 0.82 ± 0.15 µM

CC(C)C[C@H](NC(=O)OCC(C)(C)Sc1cccc(Cl)c1)C(=O)N[C@@H](C[C@@H]1CCNC1=O)C(O)S(=O)(=O)O (some centres unmarked) [Compound D7d]
CC50 (in vitro): > 50 µM
IC50 (FMDV 3Cpro [1]): 0.6 ± 0.01 µM
EC50 (FMDV 3Cpro [2]): 1.2 ± 0.14 µM

CC(C)C[C@H](NC(=O)OCC(C)(C)Sc1ccccc1)C(=O)N[C@H](C#N)C[C@@H]1CCNC1=O [Compound D1f]
CC50 (in vitro): > 50 µM
IC50 (FMDV 3Cpro [1]): > 25 µM
EC50 (FMDV 3Cpro [2]): > 10 µM

CC(C)C[C@H](NC(=O)[C@H](Cc1cccc2ccccc12)NC(=O)OCc1ccccc1)C(=O)N[C@@H](C[C@@H]1CCNC1=O)C(=O)C(=O)NC(C)C [Compound E6]
CC50 (in vitro): > 50 µM
IC50 (FMDV 3Cpro [1]): 0.06 ± 0.06 µM
EC50 (FMDV 3Cpro [2]): 0.15 ± 0.07 µM

CC(C)C[C@H](NC(=O)OCC(C)(C)S(=O)(=O)c1ccccc1)C(=O)N[C@@H](C[C@@H]1CCNC1=O)C(O)S(=O)(=O)O (some centres unmarked) [Compound D4d]
CC50 (in vitro): > 50 µM
IC50 (FMDV 3Cpro [1]): 0.65 ± 0.09 µM
EC50 (FMDV 3Cpro [2]): > 10 µM

CC(C)C[C@H](NC(=O)OCC(C)(C)S(=O)(=O)c1ccccc1)C(=O)N[C@H](C=O)C[C@@H]1CCNC1=O [Compound D4c]
CC50 (in vitro): > 50 µM
IC50 (FMDV 3Cpro [1]): 0.9 ± 0.28 µM
EC50 (FMDV 3Cpro [2]): > 10 µM

CCC[C@@H]1C[C@H]1COC(=O)N[C@@H](CC(C)C)C(=O)N[C@@H](C[C@H]1CCNC1=O)C(O)S(=O)(=O)O (some centres unmarked) [Compound C13d]
CC50 (in vitro): > 50 µM
IC50 (FMDV 3Cpro [1]): 0.75 ± 0.07 µM
EC50 (FMDV 3Cpro [2]): 3.1 ± 0.42 µM

CC(C)C[C@H](NC(=O)OCC(C)(O)c1cccc(Cl)c1)C(=O)N[C@@H](C[C@@H]1CCNC1=O)C(O)S(=O)(=O)O (some centres unmarked) [Compound D17d]
CC50 (in vitro): > 50 µM
IC50 (FMDV 3Cpro [1]): 0.9 ± 0.28 µM

CC(C)C[C@H](NC(=O)OC[C@@H]1C[C@H]1C1CCCCC1)C(=O)N[C@H](C=O)C[C@H]1CCNC1=O [Compound C15c]
CC50 (in vitro): > 50 µM
IC50 (FMDV 3Cpro [1]): 0.38 ± 0.11 µM
EC50 (FMDV 3Cpro [2]): 0.45 ± 0.05 µM

CC(C)C[C@H](NC(=O)OC[C@@H]1C[C@H]1c1cccc(Cl)c1)C(=O)N[C@@H](C[C@H]1CCNC1=O)C(O)S(=O)(=O)O (some centres unmarked) [Compound C6d]
CC50 (in vitro): > 50 µM
IC50 (FMDV 3Cpro [1]): 0.58 ± 0.11 µM
EC50 (FMDV 3Cpro [2]): 2.85 ± 0.49 µM

CC(C)C[C@H](NC(=O)OC[C@@H]1C[C@H]1c1ccc(F)cc1)C(=O)N[C@H](C=O)C[C@H]1CCNC1=O [Compound C7c]
CC50 (in vitro): > 50 µM
IC50 (FMDV 3Cpro [1]): 0.59 ± 0.04 µM
EC50 (FMDV 3Cpro [2]): 2 ± 0.14 µM

CC(C)C[C@H](NC(=O)OCC(C)(C)Oc1ccccc1)C(=O)N[C@@H](C[C@@H]1CCNC1=O)C(O)S(=O)(=O)O (some centres unmarked) [Compound D10d]
CC50 (in vitro): > 50 µM
IC50 (FMDV 3Cpro [1]): 0.7 ± 0.28 µM

CC(C)C[C@H](NC(=O)OC[C@@H]1C[C@H]1c1ccc(Cl)cc1)C(=O)N[C@H](C=O)C[C@H]1CCNC1=O [Compound C8c]
CC50 (in vitro): > 50 µM
IC50 (FMDV 3Cpro [1]): 1.15 ± 0.08 µM

[2H]C([2H])(OC(=O)N[C@@H](CC(C)C)C(=O)N[C@@H](C[C@@H]1CCNC1=O)C(O)S(=O)(=O)[O-])C(C)(C)Oc1ccc(Cl)cc1.[Na+] (some centres unmarked) [Compound D12d]
CC50 (in vitro): > 50 µM
IC50 (FMDV 3Cpro [1]): 0.19 ± 0.01 µM
EC50 (FMDV 3Cpro [2]): 0.43 ± 0.31 µM

CCCCNC(=O)C(=O)[C@H](C[C@@H]1CCNC1=O)NC(=O)[C@H](CC(C)C)NC(=O)OCc1ccccc1 [Compound E6c]
CC50 (in vitro): > 50 µM
IC50 (FMDV 3Cpro [1]): 2.1 ± 0.07 µM
EC50 (FMDV 3Cpro [2]): 7 ± 0.5 µM

CC(C)C[C@H](NC(=O)OCc1ccccc1)C(=O)N[C@@H](C[C@@H]1CCNC1=O)C(=O)C(=O)NC1CCCCC1 [Compound E6e]
CC50 (in vitro): > 50 µM
IC50 (FMDV 3Cpro [1]): 2.8 ± 0.1 µM

CC(C)C[C@H](NC(=O)OCC(C)(C)Oc1ccccc1)C(=O)N[C@H](C=O)C[C@@H]1CCNC1=O [Compound D10c]
CC50 (in vitro): > 50 µM
IC50 (FMDV 3Cpro [1]): 0.74 ± 0.08 µM

CC(C)C[C@H](NC(=O)OCc1ccccc1)C(=O)N[C@@H](C[C@@H]1CCNC1=O)C(=O)C(=O)NC(C)C [Compound E6a]
CC50 (in vitro): > 50 µM
IC50 (FMDV 3Cpro [1]): 3.9 ± 0.2 µM

CC(C)C[C@H](NC(=O)OCC(C)(O)c1cccc(Cl)c1)C(=O)N[C@H](C=O)C[C@@H]1CCNC1=O (some centres unmarked) [Compound D17c]
CC50 (in vitro): > 50 µM
IC50 (FMDV 3Cpro [1]): 2 ± 0.71 µM

CC(C)C[C@H](NC(=O)OC[C@@H]1C[C@H]1c1ccc(Cl)cc1)C(=O)N[C@@H](C[C@H]1CCNC1=O)C(O)S(=O)(=O)O (some centres unmarked) [Compound C8d]
CC50 (in vitro): > 50 µM
IC50 (FMDV 3Cpro [1]): 0.55 ± 0.07 µM
